Values after ≈ are worked out from the molar mass of the structure shown. Where a SMILES comes first, the peptide text is derived from it. Bridges are numbered along the chain shown (N, C = ends). [ ]: non-standard residue; d: D form. The star is where a group is joined. Octanoyl = CCCCCCCC(=O)*; Dab = NCC[C@H](N)C(=O)O; Abu = CC[C@H](N)C(=O)O
Tests used:
Escherichia coli [1] = experiment: Antimicrobial activity against Escherichia coli at 10 ug/mL; type: functional
Escherichia coli [2] = experiment: Antimicrobial activity against Escherichia coli; type: functional
Pseudomonas aeruginosa = experiment: Antimicrobial activity against Pseudomonas aeruginosa; type: functional, organism-based
Klebsiella pneumoniae = experiment: Antimicrobial activity against Klebsiella pneumoniae; type: functional

| SMILES | GI (Escherichia coli [1]) [square millimeter] | MIC (Escherichia coli [2]) [µg/mL] | MIC (Pseudomonas aeruginosa) [µg/mL] | MIC (Klebsiella pneumoniae) [µg/mL] |
| --- | --- | --- | --- | --- |
| CCCCCCCC(=O)N[C@H](C(=O)N[C@@H](CC)C(=O)N[C@H]1CCNC(=O)[C@H]([C@@H](C)O)NC(=O)[C@H](CCN)NC(=O)[C@H](CCN)NC(=O)[C@H](CC(C)C)NC(=O)[C@H](CC(C)C)NC(=O)[C@H](CCN)NC1=O)[C@@H](C)O (Octanoyl-T[Abu][Dab][Dab]LL[Dab][Dab]T; lactam 3-C) | 0 | – | – | – |
| CCCCCCCC(=O)N[C@@H](CCN)C(=O)N[C@H](C(=O)N[C@@H](CCN)C(=O)N[C@H]1CCNC(=O)[C@H]([C@@H](C)O)NC(=O)[C@H](CCNC(=O)[C@H](N)CCSC)NC(=O)[C@H](CCN)NC(=O)[C@H](CC(C)C)NC(=O)[C@@H](Cc2ccccc2)NC(=O)[C@H](CCN)NC1=O)[C@@H](C)O | – | 0.77 (≈ 0.583 µM) | 0.416 (≈ 0.315 µM) | 5.65 (≈ 4.28 µM) |
| CCC(C)CCCCC(=O)N[C@@H](CCNCc1ccccc1)C(=O)N[C@H](C(=O)N[C@@H](CCN)C(=O)N[C@H]1CCNC(=O)[C@H]([C@@H](C)O)NC(=O)[C@H](CCNCc2ccccc2)NC(=O)[C@H](CCNCc2ccccc2)NC(=O)[C@H](CC(C)C)NC(=O)[C@@H](Cc2ccccc2)NC(=O)[C@H](CCNCc2ccccc2)NC1=O)[C@@H](C)O (stereo not given in full) | – | 5 (≈ 3.2 µM) | – | 1.3 (≈ 0.831 µM) |
| CCCCCCCC(=O)N[C@H](C(=O)N[C@@H](CO)C(=O)N[C@H]1CCNC(=O)[C@H]([C@@H](C)O)NC(=O)[C@H](CCN)NC(=O)[C@H](CCN)NC(=O)[C@H](CC(C)C)NC(=O)[C@@H](Cc2ccccc2)NC(=O)[C@H](CCN)NC1=O)[C@@H](C)O (Octanoyl-TS[Dab][Dab][dF]L[Dab][Dab]T; lactam 3-C) | 171 | – | – | – |
| CCCCCCCC(=O)N[C@H](C(=O)N[C@H](C)C(=O)N[C@H]1CCNC(=O)[C@H]([C@@H](C)O)NC(=O)[C@H](CCN)NC(=O)[C@H](CCN)NC(=O)[C@H]([C@H](C)O)NC(=O)[C@@H](Cc2ccccc2)NC(=O)[C@H](CCN)NC1=O)[C@@H](C)O | 60 | – | – | – |
| CCCCCCCC(=O)N[C@@H](CCN)C(=O)N[C@@H](C(=O)N[C@@H](CCN)C(=O)N[C@H]1CCNC(=O)[C@H]([C@@H](C)O)NC(=O)[C@H](CCNCCCCCC(C)CC)NC(=O)[C@H](CCN)NC(=O)[C@H](CC(C)C)NC(=O)[C@@H](Cc2ccccc2)NC(=O)[C@H](CCN)NC1=O)[C@@H](C)O (stereo not given in full) | – | 3.1 (≈ 2.36 µM) | 2.18 (≈ 1.66 µM) | 0.7 (≈ 0.532 µM) |
| CCCCCCCC(=O)N[C@@H](CCN)C(=O)N[C@H](C(=O)N[C@@H](CCN)C(=O)N[C@H]1CCNC(=O)[C@H]([C@@H](C)O)NC(=O)[C@H](CCNC(=O)C(Cl)Cl)NC(=O)[C@H](CCN)NC(=O)[C@H](CC(C)C)NC(=O)[C@@H](Cc2ccccc2)NC(=O)[C@H](CCN)NC1=O)[C@@H](C)O [DICHLOROACETYL DAB9 POLYMYXIN B] | – | 1.54 (≈ 1.18 µM) | 0.995 (≈ 0.765 µM) | 0.82 (≈ 0.631 µM) |
| CCCCCCCC(=O)N[C@@H](CCN)C(=O)N[C@H](C(=O)N[C@@H](CCN)C(=O)N[C@H]1CCNC(=O)[C@H]([C@@H](C)O)NC(=O)[C@H](CCNC(=O)[C@@H](N)Cc2ccc(O)cc2)NC(=O)[C@H](CCN)NC(=O)[C@H](CC(C)C)NC(=O)[C@@H](Cc2ccccc2)NC(=O)[C@H](CCN)NC1=O)[C@@H](C)O | – | 0.175 (≈ 0.129 µM) | 0.073 (≈ 0.054 µM) | 2.2 (≈ 1.63 µM) |
| CCCCCCCC(=O)N[C@@H](CCN)C(=O)N[C@H](C(=O)N[C@@H](CCN)C(=O)N[C@H]1CCNC(=O)[C@H]([C@@H](C)O)NC(=O)[C@H](CCNC(C)C)NC(=O)[C@H](CCN)NC(=O)[C@H](CC(C)C)NC(=O)[C@@H](Cc2ccccc2)NC(=O)[C@H](CCN)NC1=O)[C@@H](C)O [DIMETHYL DAB9 POLYMYXIN B] | – | 0.537 (≈ 0.436 µM) | 0.456 (≈ 0.37 µM) | 16 (≈ 13 µM) |
| CCC(C)CCCCC(=O)N[C@@H](CCNCc1ccc(O)c(OC)c1)C(=O)N[C@@H](C(=O)N[C@@H](CCN)C(=O)N[C@H]1CCNC(=O)[C@@H]([C@@H](C)O)NC(=O)[C@H](CCNCc2ccc(O)c(O)c2)NC(=O)[C@H](CCNCc2ccc(O)c(OC)c2)NC(=O)[C@H](CC(C)C)NC(=O)[C@@H](Cc2ccccc2)NC(=O)[C@H](CCNCc2ccc(O)c(OC)c2)NC1=O)[C@@H](C)O (stereo not given in full) | – | 724 (≈ 418 µM) | – | 12 (≈ 6.92 µM) |
| CC(C)C[C@@H]1NC(=O)[C@@H](Cc2ccccc2)NC(=O)[C@H](CCN)NC(=O)[C@@H](NC(=O)[C@H](CCN)NC(=O)[C@H](NC(=O)[C@H](C)NC(=O)[C@@H](C)NC(=O)[C@H](C)N)[C@@H](C)O)CCNC(=O)[C@@H]([C@@H](C)O)NC(=O)[C@H](CCN)NC(=O)[C@H](CCN)NC1=O | – | ≥ 500 | ≥ 500 | ≥ 500 |
| CCC(C)CCCCC(=O)N[C@@H](CC/N=C/c1ccc(O)c(OC)c1)C(=O)N[C@@H](C(=O)N[C@@H](CCN)C(=O)N[C@H]1CCNC(=O)[C@@H]([C@@H](C)O)NC(=O)[C@H](CC/N=C/c2ccc(O)c(OC)c2)NC(=O)[C@H](CC/N=C/c2ccc(O)c(OC)c2)NC(=O)[C@H](CC(C)C)NC(=O)[C@@H](CC(C)C)NC(=O)[C@H](CC/N=C/c2ccc(O)c(OC)c2)NC1=O)[C@@H](C)O (stereo not given in full) | – | 5.5 (≈ 3.22 µM) | – | 2.8 (≈ 1.64 µM) |
| CC(C)C[C@@H]1NC(=O)[C@@H](Cc2ccccc2)NC(=O)[C@H](CCN)NC(=O)[C@@H](NC(=O)[C@H](CCN)NC(=O)[C@H](NC(=O)OCC2c3ccccc3-c3ccccc32)[C@@H](C)O)CCNC(=O)[C@@H]([C@@H](C)O)NC(=O)[C@H](CCN)NC(=O)[C@H](CCN)NC1=O | – | 0.8 (≈ 0.675 µM) | 8 (≈ 6.75 µM) | 62 (≈ 52.3 µM) |
